We go through five molecules from publication PMC6416309, “Crystal structures of thiamine monophosphate kinase from Acinetobacter baumannii in complex with substrates and products” (Scientific Reports, 2019).

In data set [1] the target is T1, AbThiL (ThiL, thiamine monophosphate kinase) (Acinetobacter baumannii, UniProt A0A0D5YC82).
T1 construct: non-cleavable N-terminal His6-tag (vector pBG1861), expressed in E. coli Rosetta BL21(DE3)R3; modelled Met1/Ala2 to Phe304/C-terminal Ala305; homodimer, active site at dimer interface
T1 sequence (A0A0D5YC82 1-305): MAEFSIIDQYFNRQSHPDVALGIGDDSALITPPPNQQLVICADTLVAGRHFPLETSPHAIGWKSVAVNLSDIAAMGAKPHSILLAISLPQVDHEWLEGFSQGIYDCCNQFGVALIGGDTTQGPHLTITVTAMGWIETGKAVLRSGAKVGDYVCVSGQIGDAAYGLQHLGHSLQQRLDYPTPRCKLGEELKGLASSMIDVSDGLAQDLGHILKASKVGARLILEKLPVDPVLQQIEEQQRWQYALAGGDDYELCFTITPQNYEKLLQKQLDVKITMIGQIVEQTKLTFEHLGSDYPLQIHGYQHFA
The data set can be described thus: X-ray crystallography (co-crystal), […] A monoclinic and […] A orthorhombic. The class given is binding. The following applies: 5 mM ADP/TPP/MgCl2, paper assigns 5CM7, 5D9U and 6MFM to the two crystal forms inconsistently.

The target of data set [2] is T1, AbThiL (ThiL, thiamine monophosphate kinase). The data set can be described thus: X-ray crystallography (overnight soak of AMPPNP co-crystals), […] A. The format is binding. As to conditions: ternary complex with AMPPNP; Mg2+; 5 mM AMPPNP/TMP/MgCl2; K/Na-tartrate, HEPES pH 7.5; active site at dimer interface.
Data set [3] has the same target. The data set can be described thus: X-ray crystallography (co-crystal), […] A. The class given is binding. As to conditions: AMPPNP alone, 5 mM AMPPNP/MgCl2, NaBr; ATP site; also with TMP in 5DD7.
Data set [4] concerns the molecule itself. The data set can be described thus: crystal structure; AbThiL co-crystallised or soaked with AMPPNP, AMPPNP/TMP or ADP/TPP and MgCl2; orthorhombic (P21212) and monoclinic (P21) crystal forms; sitting drops at 287 K.

With `Nc1ncnc2c1ncn2[C@@H]1O[C@H](COP(=O)(O)OP(=O)(O)O)[C@@H](O)[C@H]1O` [ADP], the “X-ray crystallography (co-crystal), 1.55 A monoclinic and 1.90 A orthorhombic” value in data set [1] (ternary complex with TPP, ATP/ADP site) is “with the products ADP/TDP (orthorhombic and monoclinic)”.
Consider `Cc1ncc(C[n+]2csc(CCOP(=O)(O)O)c2C)c(N)n1` [TMP], for which, in data set [2], the “X-ray crystallography (overnight soak of AMPPNP co-crystals), 1.70 A” value was “AbThiL in complex with AMPPNP alone (orthorhombic), the substrate analogs AMPPNP/TMP (orthorhombic)”.
As for `Cc1ncc(C[n+]2csc(CCOP(=O)(O)OP(=O)(O)O)c2C)c(N)n1` [TPP], the “X-ray crystallography (co-crystal), 1.55 A monoclinic and 1.90 A orthorhombic” value in data set [1] (ternary complex with ADP, TMP/TPP site) was “with the products ADP/TDP (orthorhombic and monoclinic)”.
Regarding `Nc1ncnc2c1ncn2[C@@H]1O[C@H](COP(=O)(O)OP(=O)(O)NP(=O)(O)O)[C@@H](O)[C@H]1O` [AMPPNP], the “X-ray crystallography (co-crystal), 1.75 A” value in data set [3] is recorded as “AbThiL in complex with AMPPNP alone (orthorhombic)”.

B1: Thiamine monophosphate kinase (ThiL) from Acinetobacter baumannii (enzyme, UniProt A0A0D5YC82 1-305, looked up)
chain: MAEFSIIDQYFNRQSHPDVALGIGDDSALITPPPNQQLVICADTLVAGRHFPLETSPHAIGWKSVAVNLSDIAAMGAKPHSILLAISLPQVDHEWLEGFSQGIYDCCNQFGVALIGGDTTQGPHLTITVTAMGWIETGKAVLRSGAKVGDYVCVSGQIGDAAYGLQHLGHSLQQRLDYPTPRCKLGEELKGLASSMIDVSDGLAQDLGHILKASKVGARLILEKLPVDPVLQQIEEQQRWQYALAGGDDYELCFTITPQNYEKLLQKQLDVKITMIGQIVEQTKLTFEHLGSDYPLQIHGYQHFA
notes: Thiamine monophosphate kinase (ThiL), Acinetobacter baumannii strain AB5075-UW, gene amplified from genomic DNA; The vector pBG1861 provides a non-cleavable N-terminal His6-tag; also called AbThiL; not shown: His6, N-terminal, kept
Turning to B1, the “stoichiometry N” value in data set [4] is 2.
